In patent US20070270392A1, “Use of a Cyclopentenone Prostaglandin for Delaying the Onset and/or Preventing the Continuation of Labour” (Imperial College Innovations Limited, priority 2003, published 2007):
Residues, ends and D or L forms follow the SMILES beside them. *: point of attachment. Cbz = O=C(OCc1ccccc1)*

Columns and labels:
[1] = tested on: NF-κB; experiment: EMSA of NF-κB DNA binding in nuclear extracts of treated myometrial cells; type: cell-based, human; settings: myometrial cells; for IL-1β-induced NF-κB DNA binding: IL-1β stimulation 15 min
Experimental: (§1) Electro-mobility shift assay (EMSA) analysis of NF-κB DNA binding in nuclear protein extracts from (A) myometrial cells, (B) L+amnion cells, and (C) L− amnion cells treated with 15dPGJ2 or vehicle for 2 h+/−IL-1b stimulation (15 min). Consensus kB probe used to assess NF-κB DNA binding, and consensus Oct-1 probe used as control.
Consensus κB probe used to assess NF-κB DNA binding, consensus Oct-1 probe used as control. For supershift analysis, extracts were preincubated with antibodies against p50 or p65.
EMSA analysis of nuclear protein extracts from myometrial cells treated with (A) WY-14643 or vehicle, and (B) high doses of troglitazone, WY-14643 or vehicle for 2 h followed by IL-1b stimulation (15 min). Consensus κB probe used to assess NFκB DNA binding, consensus Oct-1 and Sp-1 probes used as controls.
(§2) EMSA analysis of nuclear protein extracts from (A) myometrial cells, and (B) amnion cells treated with PGA1 or vehicle for 2 h followed by IL-1b stimulation (15 min). Consensus κB probe used to assess NFκB DNA binding, consensus Oct-1 probe used as control. For supershift analysis, extracts were preincubated with antibodies against p50 or p65.
(§3) Analysis of nuclear protein extracts from myometrial cells treated with PGE2 or vehicle for 2 h+/−TNFα or IL-1b stimulation (15 min). (A) EMSA using consensus κB probe. (B) Western immunoblot probing for nuclear p65.
(§4) EMSA analysis of nuclear protein extracts from (A) L− amnion cells and (B) myometrial cells treated with vehicle, PGE2 or IL-1β. Consensus κB probe used.
(§5) Myometrial tissue was collected at term from the upper margin of uterine incision at the time of lower segment caesarean section either prior to the onset of labour (L−) or […] (L+). L+ samples were collected by Dr Mark Johnson and Dr S Soorrana at Chelsea & Westminster Hospital. Myometrial tissue was dissected, rinsed in PBS, and digested in serum-free DMEM containing 15 mg/ml collagenase 1A (Sigma), 15 mg/ml collagenase X, and 50 mg/ml bovine serum albumin for 45 min at 37° C. The cell suspension was filtered through a cell strainer, centrifuged at 400 g for 5 min, and the pellet re-suspended and plated out in DMEM, 10% FCS (Helena BioScience), 1% L-glutamine, 1% penicillin-streptomycin. Cells were used between passage numbers 1-4.
(§6) Nuclear and cytosolic protein extracts were obtained from cultured amnion cells as described by Schreiber et al (1989). For nuclear/cytosolic fractionation, confluent cell monolayers were scraped and lysed using a buffer containing 10 mM HEPES, 10 mM KCl, 0.1 mM EDTA, 0.1 mM EGTA, 2 mM DTT, 1% (v/v) NP-40 and complete protease inhibitor tablets (CPIs, Roche), diluted to manufacturer's instructions. Cell lysates were incubated on ice for 10 min and NP-40 added to a final concentration of 1% (v/v). Lysates were vortexed for 10 secs and centrifuged for 30 secs at 4° C., 12000 g. The supernatants were retained as the cytosolic protein extracts. The pellets were resuspended in buffer containing 10 mM HEPES, 10 mM KCl, 0.1 mM EDTA, 0.1 mM EGTA, 2 mM DTT, 400 mM NaCl, 1% NP-40 (v/v) and CPIs. Samples were shaken vigorously for 15 min in an ice bath. The nuclear protein extracts were obtained in the supernatant following a 5 min centrifugation at 4° C., 12000 g.
(§7) Sense and antisense strands (175 nmole/ml each) were incubated in annealing buffer (10 mM Tris-HCl pH7.5, 100 mM NaCl, 1 mM EDTA) for 10 min at 65° C., and allowed to cool at room temperature for 2 h. 3.5 pmole double-stranded oligonucleotides were end-labelled with 0.37 MBq ^32P(γATP) by incubating for 30 min at 37° C. with T4 polynucleotide kinase. Labelled oligonucleotides were recovered by centrifugation at […] for 2 min through MicroSpin G-25 or G-50 sephadex columns (Amersham Biosciences). […]

[2] = tested on: NF-κB; experiment: EMSA of NF-κB DNA binding in nuclear extracts of treated amnion cells; type: cell-based, human
Experimental: as §1
EMSA analysis of nuclear protein extracts from amnion cells treated with 15dPGJ2+/−GW9662 or vehicle for 2 h followed by IL-1β stimulation (15 min). Consensus kB probe used to assess NFκB DNA binding, consensus Oct-1 probe used as control.
as §2, §4
(§8) Placentae were obtained from patients at term either at elective Caesarean section prior to labour (L−) or following spontaneous labour onset and vaginal delivery (L+). Amnion cells were prepared as described in Bennett et al., (1989). Briefly, the amnion was separated from the placenta, washed 3× in PBS, cut into strips, and incubated in 0.51 mM EDTA in PBS for 15 min. The strips were washed in PBS 2× and digested with 2.5 mg/ml dispase in serum-free DMEM for 35 min at 37° C. The amnion was then shaken vigorously in DMEM, 10% FCS to dissociate the cells, the remaining strips discarded, and the cell suspension pelleted at 175 g for 10 min and cultured in DMEM, 10% FCS (Sigma), 1% L-glutamine, 1% penicillin-streptomycin.
as §6, §7

[3] = tested on: NF-κB; experiment: Western immunoblot of NF-κB activation (p65, p50, IκB) in amnion cells; type: cell-based, human; settings: L−
Experimental: (§9) Western immunoblots of nuclear or cytosolic protein extracts from (A) myometrial cells, (B) L− amnion cells, and (C) L+amnion cells treated with 15dPGJ2 or vehicle for 2 h+/−IL-1, stimulation (15 min). Blots probed with antibodies against p65, p50 or IκBα.
as §8, §6
Protein samples (20-70 μg) were mixed with Laemmli sample buffer (1:1) containing β-mercaptoethanol (5%), and boiled for 5 min. Proteins were then separated by SDS-PAGE (12-14% gels) and transferred onto PVDF membrane (Amersham Pharmacia Biotech). The membranes were blocked overnight in 5% non-fat milk prepared in PBS-T buffer, at 4° C. The blots were incubated with the primary antibody in 1% non-fat milk in PBS-T buffer for 1 h, and washed three times (10 min each) in PBS-T with vigorous shaking. The blots were then incubated with HRP-conjugated secondary antibody (diluted 1:2000 in 1% non-fat milk in PBS-T buffer) for 1 h and washed three times (10 min each) in PBS-T. Signal detection was achieved using enhanced chemi-luminescence (ECL plus system, Amersham Pharmacia Biotech) according to manufacturer's instructions. […]

[4] = tested on: NF-κB; experiment: Western immunoblot of NF-κB activation (p65, p50, IκB) in myometrial cells; type: cell-based, human; design: Accumulation of phosphorylated IκBα: dose or concentration left out as unconfirmed
Experimental: as §9
Western immunoblot of nuclear or cytosolic protein extracts from myometrial cells treated with PGA1 or vehicle for 2 h followed by IL-1β stimulation (15 min). Blots probed with antibodies against p65 or IκBa.
as §3
Western immunoblots of cytosolic extracts from myometrial cells (A) treated with 15dPGJ2 for 2 h+/−IL1b for 15 min; probed for IKK, and (B) treated with […] 15dPGJ2, […] MG132 or vehicle for 2 h, +/−IL-1β for 15 min; probed for IκBα.
as §5, §6
Protein samples (20-70 μg) were mixed with Laemmli sample buffer (1:1) containing β-mercaptoethanol (5%), and boiled for 5 min. Proteins were then separated by SDS-PAGE (12-14% gels) and transferred onto PVDF membrane (Amersham Pharmacia Biotech). The membranes were blocked overnight in 5% non-fat milk prepared in PBS-T buffer, at 4° C. The blots were incubated with the primary antibody in 1% non-fat milk in PBS-T buffer for 1 h, and washed three times (10 min each) in PBS-T with vigorous shaking. The blots were then incubated with HRP-conjugated secondary antibody (diluted 1:2000 in 1% non-fat milk in PBS-T buffer) for 1 h and washed three times (10 min each) in PBS-T. Signal detection was achieved using enhanced chemi-luminescence (ECL plus system, Amersham Pharmacia Biotech) according to manufacturer's instructions.
30-50 μg protein extracts were subjected to SDS-PAGE and Western immuno-blotting. Secondary antibodies were IgG-HRP and ECL Plus detection kit (Amersham Pharmacia Biotech, Amersham Place, Little Chalfont, Bucks, HP7 9NA) was used for visualisation.

[5] = tested on: NF-κB; experiment: NF-κB-dependent luciferase reporter (κB.BG.Luc) in myometrial cells; type: cell-based, human; settings: treated 2 h, IL-1β 1 ng/ml 6 h
Experimental: Myometrial cells were transiently transfected with the NFκB-dependent reporter construct κB.BG.Luc, treated with 15dPGJ2 or vehicle for 2 h, +/−IL-1β(1 ng/ml) for 6 h. […] Values are normalised for b-gal reporter activity. (NS=nonstimulated).
Myometrial cells were transfected with […] κB.BG.Luc reporter and 200 ng PPAR-γ expression vector and treated with 15d-PGJ2 for 2 h followed by IL-1β (1 ng/ml) for 6 h. Values are normalised for β-galactosidase reporter activity. (NS=nonstimulated).
as §5
pGL3.6 κB.BG.luc: a NF-κB-dependent reporter construct with 6 copies of the NF-κB binding site.
Cells were co-transfected with the renilla vector pRL-CMV or a β-galactosidase vector pCH110 as internal controls for transfection efficiencies.

[6] = tested on: PPARα; settings: GAL4 chimera transfection system; cited from earlier work

Compound: CCCCC(C)(C)[C@H](O)/C=C/[C@H]1[C@H](O)CC(=O)[C@@H]1C/C=C\CCCC(=O)O [16,16-Dimethyl-PGE2]
- Synergy with IL-1β or TNFα on NF-κB activity [1]: nor did it synergise
- IL-1β-induced NF-κB DNA binding ([1]; treated 2 h): did not inhibit
- TNFα- and IL-1β-induced NFκB activation ([1]; treated 2 h, TNFα or IL-1b 15 min): does not inhibit
- Induction of NF-κB DNA binding / stimulation of NF-κB activity by the compound alone ([1]; listed as 16,16-dimethyl-PGE2): neither did it stimulate
- Induction of NF-κB DNA binding / stimulation of NF-κB activity by the compound alone ([1]; listed as PGE2): does not induce
- Induction of NF-κB DNA binding by the compound alone ([2]; L− amnion cells): does not induce
- IL-1β-induced NF-κB DNA binding ([2]; L− and L+ amnion cells, treated 2 h, IL-1β stimulation 15 min): did not inhibit
- IL-1β-induced p65 nuclear translocation [3]: did not inhibit
- IL-1β-induced p65 nuclear translocation [4]: did not inhibit

Compound: CN(CCOc1ccc(C[C@H](Nc2ccccc2C(=O)c2ccccc2)C(=O)O)cc1)c1ccccn1 [GW1929, reference compound]
- IL-1β-induced NF-κB DNA binding ([1]; treated 2 h): failed to inhibit
- IL-1-induced NF-κB transcriptional activity [5]: not

Compound: O=C(Nc1ccccc1)c1cc([N+](=O)[O-])ccc1Cl [GW-9662]
- Alleviation of 15d-PGJ2 inhibition of NF-κB DNA binding ([2]; amnion cells treated with 15d-PGJ2 in the presence of GW-9662): failed to alleviate

Compound: CC(C)C[C@@H](C=O)NC(=O)[C@H](CC(C)C)NC(=O)[C@H](CC(C)C)NC(=O)OCc1ccccc1 [MG132, reference compound] (Cbz-Leu-Leu-Leu-aldehyde)
- IL-1β-induced IκBα degradation [4]: prevented
- Accumulation of phosphorylated IκBα ([4]; 2 h, IL-1β 15 min): resulted in the accumulation

Compound: Cc1cccc(Nc2cc(Cl)nc(SCC(=O)O)n2)c1C [WY-14643, reference compound]
- NF-κB DNA binding ([1]; 10-100 μM concentrations): had no effect
- Doses that can transactivate PPARα [6]: 5 to 25 µM
- IL-1-induced NF-κB transcriptional activity [5]: not
